These results are taken from US20180008587A1, “THIOHYDANTOIN ANDROGEN RECEPTOR ANTAGONISTS FOR THE TREATMENT OF CANCER” (Jaressen Pharmaceutica NV, priority 2016, published 2018).

Holding throughout (format): cell-based
Test [1] deals with T1, F876L mutant Androgen Receptor (AR-F876L) (Homo sapiens, UniProt P10275, F877L).
T1 construct: expressed in transfected cells; host or cells: LNCaP (LNCaP F876L)
T1 sequence (P10275 1-920 F877L): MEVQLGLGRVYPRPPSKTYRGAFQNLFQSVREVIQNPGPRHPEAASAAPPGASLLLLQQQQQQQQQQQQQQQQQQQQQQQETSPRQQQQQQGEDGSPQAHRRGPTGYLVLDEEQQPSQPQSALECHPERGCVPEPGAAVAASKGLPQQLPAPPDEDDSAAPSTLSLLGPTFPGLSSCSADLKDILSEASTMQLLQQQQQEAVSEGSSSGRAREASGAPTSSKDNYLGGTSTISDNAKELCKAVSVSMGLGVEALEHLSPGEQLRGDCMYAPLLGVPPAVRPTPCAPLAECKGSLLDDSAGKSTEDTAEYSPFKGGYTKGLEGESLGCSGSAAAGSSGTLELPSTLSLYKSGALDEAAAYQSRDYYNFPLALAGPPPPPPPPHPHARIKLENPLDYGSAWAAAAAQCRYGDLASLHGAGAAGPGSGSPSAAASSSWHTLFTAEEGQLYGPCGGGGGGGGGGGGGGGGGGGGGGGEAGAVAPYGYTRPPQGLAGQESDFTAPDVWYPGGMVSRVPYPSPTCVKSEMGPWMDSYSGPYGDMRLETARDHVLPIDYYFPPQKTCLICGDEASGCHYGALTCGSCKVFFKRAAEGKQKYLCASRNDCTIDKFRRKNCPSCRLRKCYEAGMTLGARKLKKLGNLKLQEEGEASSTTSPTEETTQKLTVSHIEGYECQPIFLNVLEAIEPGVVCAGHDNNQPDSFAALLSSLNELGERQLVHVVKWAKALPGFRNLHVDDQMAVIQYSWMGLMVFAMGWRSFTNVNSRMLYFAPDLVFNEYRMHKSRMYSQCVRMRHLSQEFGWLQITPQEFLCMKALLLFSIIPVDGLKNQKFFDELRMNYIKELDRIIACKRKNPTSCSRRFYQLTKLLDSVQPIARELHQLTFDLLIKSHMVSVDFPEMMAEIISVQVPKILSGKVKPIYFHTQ
Briefly: LNCaP-AR-F876L AG reporter assay (ARE firefly luciferase, agonist mode). The settings on record: for Emax: read-out: LNCaP-AR-F876L AG MAX % Stim. In a few lines:
(§1)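 Read-out is luciferase luminescence taken 1 h after Steady-Glo addition, following 20-24 h compound exposure at 37 °C in LNCaP pools stably carrying wild-type or F876L AR. Cells were grown in charcoal-stripped serum. Antagonist wells received agonist at 400 pM (WT) or 600 pM (F876L).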

Test [2] has as its target T2, wild-type Androgen Receptor (AR-wt) (Homo sapiens, UniProt P10275).
T2 construct: expressed in transfected cells; host or cells: LNCaP (LNCaP AR (cs))
T2 sequence (P10275 1-920): T1 sequence (P10275 1-920 F877L) with L877F
Briefly: LNCaP-AR-wt AG reporter assay (ARE firefly luciferase, agonist mode). Particulars: for Emax: read-out: LNCaP-AR-wt AG MAX % Stim. In short, it runs like this: as §1
(In general: Reporter assays use an easily measured gene product as a stand-in for the process of interest.)

Test [3] has as its target T1, F876L mutant Androgen Receptor (AR-F876L). Briefly: LNCaP-AR-F876L ANT reporter assay (ARE firefly luciferase, antagonist mode). The settings on record: for Emax: read-out: LNCaP-AR-F876L ANT MAX % Inh. In short, it runs like this: (§2)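 Puromycin-selected pooled LNCaP populations expressing AR-wt or AR-F876L are seeded in CSS medium and treated with compound for 20-24 h at 37 °C. For antagonist testing, agonist is added at 400 pM (WT) or 600 pM (F876L). Potency values derive from least-squares fitting of luminescence RLU.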

The target of test [4] is T2, wild-type Androgen Receptor (AR-wt). Briefly: LNCaP-AR-wt ANT reporter assay (ARE firefly luciferase, antagonist mode). The settings on record: for IC50: antagonist mode, 400 pM R-1881 challenge, −Log10(IC50 [Molar]), read-out: LNCaP-AR-wt ANT pIC50 (converted); for Emax: read-out: LNCaP-AR-wt ANT MAX % Inh. In a few lines: as §2
The mark [5] stands for this setting: agonist mode, −Log10(EC50 [Molar]), read-out: LNCaP-AR-F876L AG pEC50 (converted).
The mark [6] stands for this setting: maximum % stimulation (agonist response) over tested concentration range.
[7] abbreviates: agonist mode, −Log10(EC50 [Molar]), read-out: LNCaP-AR-wt AG pEC50 (converted).
Where [8] appears, read: maximum % inhibition of R1881 control response over tested concentration range.
The mark [9] stands for this setting: read-out: LNCaP-AR-F876L ANT pIC50 (converted).

Positions count from the first letter of the chain named. Read-outs that look alike come from different tables or passages of the source. Some results are limits rather than exact numbers.

With `N#Cc1ncc(N2C(=O)C3(CCC3)N(c3ccc(C(=O)NCCc4ccncc4)c(F)c3)C2=S)cc1C(F)(F)F` [Cpd 14, 4-[6-[6-cyano-5-(trifluoromethyl)-3-pyridyl]-5-oxo-7-thioxo-6,8-diazaspiro[3.4]octan-8-yl]-2-fluoro-N-[2-(4-pyridyl)ethyl]benzamide], the EC50 in test [1] (setting [5]) and in test [2] (setting [7]) was over 15100 nM throughout. The Emax is -0.1% in test [1] (setting [6]), 0% in test [2] (setting [6]), 99.7% in test [3] (setting [8]) and 102% in test [4] (setting [8]). The figures for the IC50 in test [3] (setting [9]) and in test [4] were 112 nM and 87.1 nM, respectively.

On to `Cc1cc(N2C(=O)C3(CCC3)N(c3ccc(-c4cncnc4)cc3)C2=S)cnc1C#N` [Cpd 93, 3-methyl-5-[5-oxo-8-(4-pyrimidin-5-ylphenyl)-7-thioxo-6,8-diazaspiro[3.4]octan-6-yl]pyridine-2-carbonitrile], for which the EC50 in test [1] and in test [2] was over 15100 nM throughout. Moreover, the Emax in test [1] turned out to be 0.8%; in test [2] it was 0.9%; in test [3], 100%; in test [4] it was 100%. The IC50 in test [3] (setting [9]) is 234 nM; in test [4] it was 407 nM.

In the case of `C#CCNC(=O)c1ccc(N2C(=S)N(c3cnc(C#N)c(C(F)(F)F)c3)C(=O)C23CCC3)cc1F` [Cpd 111, 4-[6-[6-cyano-5-(trifluoromethyl)-3-pyridyl]-5-oxo-7-thioxo-6,8-diazaspiro[3.4]octan-8-yl]-2-fluoro-N-prop-2-ynyl-benzamide], the EC50 in test [1] and in test [2] was over 15100 nM throughout. Moreover, the Emax in test [1] was found to be 2.7%; in test [2] it was 0.5%; in test [3], 94.1%; in test [4], 102%. Also, the IC50 was 525 nM in test [3] (setting [9]) and 407 nM in test [4].

For `N#Cc1ncc(N2C(=O)C3(CCC3)N(c3ccc(OCCN4CCCC4)c(F)c3)C2=S)cc1C(F)(F)F` [Cpd 66, 5-[8-[3-fluoro-4-(2-pyrrolidin-1-ylethoxy)phenyl]-5-oxo-7-thioxo-6,8-diazaspiro[3.4]octan-6-yl]-3-(trifluoromethyl)pyridine-2-carbonitrile], the EC50 in test [1] (setting [5]) and in test [2] (setting [7]) was over 15100 nM throughout. The Emax was found to be 0.1% in test [1] (setting [6]), 0.6% in test [2] (setting [6]), 96.2% in test [3] (setting [8]) and 98.9% in test [4] (setting [8]). The IC50 in test [3] (setting [9]) is 603 nM; in test [4], 1150 nM.

Turning to `CN(CCCNC(=O)c1ccc(N2C(=S)N(c3cnc(C#N)c(C(F)(F)F)c3)C(=O)C23CCC3)cc1F)C1CCCC1` [Cpd 64, 4-[6-[6-cyano-5-(trifluoromethyl)-3-pyridyl]-5-oxo-7-thioxo-6,8-diazaspiro[3.4]octan-8-yl]-N-[3-[cyclopentyl(methyl)amino]propyl]-2-fluoro-benzamide], the EC50 in test [1] (setting [5]) and in test [2] (setting [7]) was over 15100 nM throughout. Also, the Emax in test [1] (setting [6]) amounted to 0.7%; in test [2] (setting [6]), 1.2%; in test [3] (setting [8]) it was 98.1%; in test [4] (setting [8]), 98.9%. Further, the IC50 in test [3] (setting [9]) is 174 nM; in test [4], 282 nM.

With `CCCCNC(=O)c1ccc(N2C(=S)N(c3cnc(C#N)c(C(F)(F)F)c3)C(=O)C23CCC3)cc1F` [Cpd 58, N-butyl-4-[6-[6-cyano-5-(trifluoromethyl)-3-pyridyl]-5-oxo-7-thioxo-6,8-diazaspiro[3.4]octan-8-yl]-2-fluoro-benzamide], the EC50 in test [1] (setting [5]) and in test [2] (setting [7]) was over 15100 nM throughout. The Emax in test [1] (setting [6]) is 0.6%; in test [2] (setting [6]), 0.1%; in test [3] (setting [8]) it was 98.2%; in test [4] (setting [8]), 102%. Also, the IC50 in test [3] (setting [9]) is 204 nM; in test [4], 245 nM.

`CN1CCC(Oc2ccc(N3C(=S)N(c4cnc(C#N)c(C(F)(F)F)c4)C(=O)C34CCC4)cc2F)CC1` [Cpd 28, 5-[8-[3-fluoro-4-[(1-methyl-4-piperidyl)oxy]phenyl]-5-oxo-7-thioxo-6,8-diazaspiro[3.4]octan-6-yl]-3-(trifluoromethyl)pyridine-2-carbonitrile]: the EC50 in test [1] and in test [2] was over 15100 nM throughout. Also, the Emax is 0% in test [1], -0.1% in test [2], 100% in test [3] and 99.6% in test [4]. Further, the results for the IC50 in test [3] (setting [9]) and in test [4] were 204 nM and 501 nM, respectively.

As for `Cc1cc(N2C(=O)C3(CCC3)N(c3ccc(Oc4ccncn4)cc3)C2=S)cnc1C#N` [Cpd 62, 3-methyl-5-[5-oxo-8-(4-pyrimidin-4-yloxyphenyl)-7-thioxo-6,8-diazaspiro[3.4]octan-6-yl]pyridine-2-carbonitrile], the EC50 in test [1] and in test [2] was over 15100 nM throughout. For the same compound, the Emax stood at 0.4% in test [1], 0.8% in test [2], 99.7% in test [3] and 98.8% in test [4]. In addition, the IC50 in test [3] is 91.2 nM; in test [4] it was 339 nM.

Consider `CNC(=O)c1ccc(N2C(=S)N(c3cnc(C#N)c(C(F)F)c3)C(=O)C23CCC3)cc1F` [Cpd 39, 4-[6-[6-cyano-5-(difluoromethyl)-3-pyridyl]-5-oxo-7-thioxo-6,8-diazaspiro[3.4]octan-8-yl]-2-fluoro-N-methyl-benzamide], for which the EC50 in test [1] (setting [5]) and in test [2] (setting [7]) was over 15100 nM in each case. The Emax in test [1] (setting [6]) was determined as 0.3%; in test [2] (setting [6]) it was 0.2%; in test [3] (setting [8]) it was 94.4%; in test [4] (setting [8]), 97.2%. Further, the IC50 in test [3] (setting [9]) is 1550 nM; in test [4] it was 1820 nM.
